The values that follow come from ChEMBL document CHEMBL3627709, “Discovery of a Novel, Potent Spirocyclic Series of γ-Secretase Inhibitors” (J Med Chem, 2015).

For data set [1], the target named is Gamma-secretase. Kind of data set: Inhibition of gamma-secretase in HEK293 cell membranes using SPC99-Lon as substrate assessed as formation of amyloid beta 40 after 1 hr by electrochemiluminescence-based immunoassay. More on the design: species or system Homo sapiens.
Data set [2] deals with Voltage-gated inwardly rectifying potassium channel KCNH2 (Homo sapiens, UniProt Q12809). Kind of data set: Inhibition of human ERG.
Sequence of Voltage-gated inwardly rectifying potassium channel KCNH2 (Q12809 whole entry): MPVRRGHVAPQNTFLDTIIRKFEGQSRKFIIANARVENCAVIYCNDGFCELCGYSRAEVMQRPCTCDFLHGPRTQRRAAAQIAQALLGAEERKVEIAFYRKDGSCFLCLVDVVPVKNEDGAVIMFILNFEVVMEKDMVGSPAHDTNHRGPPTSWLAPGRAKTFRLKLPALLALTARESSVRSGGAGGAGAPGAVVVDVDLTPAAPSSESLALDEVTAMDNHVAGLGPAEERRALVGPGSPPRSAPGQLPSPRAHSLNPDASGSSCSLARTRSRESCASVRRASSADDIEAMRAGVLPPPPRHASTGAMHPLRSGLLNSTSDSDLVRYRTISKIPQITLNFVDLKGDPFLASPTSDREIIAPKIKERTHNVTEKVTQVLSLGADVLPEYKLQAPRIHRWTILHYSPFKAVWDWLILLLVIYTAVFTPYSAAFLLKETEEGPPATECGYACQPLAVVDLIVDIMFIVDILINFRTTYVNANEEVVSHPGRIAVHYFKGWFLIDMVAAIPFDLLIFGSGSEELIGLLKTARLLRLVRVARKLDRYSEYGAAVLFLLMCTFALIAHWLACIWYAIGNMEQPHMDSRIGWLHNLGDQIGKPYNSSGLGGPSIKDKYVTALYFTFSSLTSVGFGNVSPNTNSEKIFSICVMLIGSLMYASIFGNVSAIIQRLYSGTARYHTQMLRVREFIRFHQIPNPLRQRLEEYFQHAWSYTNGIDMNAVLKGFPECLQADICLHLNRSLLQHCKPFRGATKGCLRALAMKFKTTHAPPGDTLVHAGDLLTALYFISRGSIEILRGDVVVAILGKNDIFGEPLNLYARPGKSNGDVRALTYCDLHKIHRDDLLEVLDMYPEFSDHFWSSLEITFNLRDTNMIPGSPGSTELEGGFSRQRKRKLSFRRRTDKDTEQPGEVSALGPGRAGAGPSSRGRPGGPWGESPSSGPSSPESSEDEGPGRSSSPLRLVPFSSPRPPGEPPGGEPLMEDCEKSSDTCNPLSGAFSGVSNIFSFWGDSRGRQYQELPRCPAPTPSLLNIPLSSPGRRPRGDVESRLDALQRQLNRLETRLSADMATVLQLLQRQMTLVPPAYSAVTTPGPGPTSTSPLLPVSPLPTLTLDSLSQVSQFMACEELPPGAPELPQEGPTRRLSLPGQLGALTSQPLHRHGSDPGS
Data set [3] addresses T1, Cytochrome P450 3A4 (Homo sapiens, UniProt P08684). Kind of data set: Inhibition of CYP3A4 (unknown origin) co-incubated with substrate and protein. Type of data set: ADME.
Data set [4] deals with T1, Cytochrome P450 3A4. The experiment in a line: Inhibition of CYP3A4 (unknown origin) preincubated with protein for 30 mins followed by substrate addition. In kind it is ADME.
Data set [5] deals with T2, Cytochrome P450 2D6 (Homo sapiens, UniProt P10635). The experiment in a line: Inhibition of CYP2D6 (unknown origin) co-incubated with substrate and protein. In kind it is ADME.
T2 sequence (P10635 whole entry): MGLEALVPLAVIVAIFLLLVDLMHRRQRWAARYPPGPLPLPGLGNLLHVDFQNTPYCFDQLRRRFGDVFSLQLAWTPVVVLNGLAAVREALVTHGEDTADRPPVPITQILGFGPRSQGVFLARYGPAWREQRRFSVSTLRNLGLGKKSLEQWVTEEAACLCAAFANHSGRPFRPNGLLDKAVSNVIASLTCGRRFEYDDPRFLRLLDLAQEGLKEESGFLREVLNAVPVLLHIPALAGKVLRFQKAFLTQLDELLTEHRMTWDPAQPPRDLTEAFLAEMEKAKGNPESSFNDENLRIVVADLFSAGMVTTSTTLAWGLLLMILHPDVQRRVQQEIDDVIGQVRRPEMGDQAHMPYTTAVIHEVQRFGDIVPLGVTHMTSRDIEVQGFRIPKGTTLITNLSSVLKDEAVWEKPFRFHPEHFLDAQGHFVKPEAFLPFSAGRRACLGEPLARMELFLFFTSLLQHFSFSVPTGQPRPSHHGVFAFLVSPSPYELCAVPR
The target in data set [6] is T2, Cytochrome P450 2D6. The experiment in a line: Inhibition of CYP2D6 (unknown origin) preincubated with protein for 30 mins followed by substrate addition. In kind it is ADME.
The target in data set [7] is T3, Cytochrome P450 2C9 (Homo sapiens, UniProt P11712). The experiment in a line: Inhibition of CYP2C9 (unknown origin) co-incubated with substrate and protein. In kind it is ADME.
T3 sequence (P11712 whole entry): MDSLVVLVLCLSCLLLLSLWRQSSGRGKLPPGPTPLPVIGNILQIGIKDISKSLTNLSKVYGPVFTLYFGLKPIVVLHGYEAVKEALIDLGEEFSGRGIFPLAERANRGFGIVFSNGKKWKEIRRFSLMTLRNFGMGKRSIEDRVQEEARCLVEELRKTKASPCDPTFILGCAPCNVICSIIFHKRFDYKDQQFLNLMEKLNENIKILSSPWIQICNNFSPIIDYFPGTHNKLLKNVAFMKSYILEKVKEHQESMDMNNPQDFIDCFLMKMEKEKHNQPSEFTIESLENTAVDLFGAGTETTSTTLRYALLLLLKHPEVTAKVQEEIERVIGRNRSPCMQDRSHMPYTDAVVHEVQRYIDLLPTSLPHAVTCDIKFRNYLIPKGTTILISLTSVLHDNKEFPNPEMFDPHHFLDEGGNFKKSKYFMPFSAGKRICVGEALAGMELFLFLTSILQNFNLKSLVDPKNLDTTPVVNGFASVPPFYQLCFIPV
In data set [8] the target is T3, Cytochrome P450 2C9. Kind of data set: Inhibition of CYP2C9 (unknown origin) preincubated with protein for 30 mins followed by substrate addition. In kind it is ADME.
A short description of data set [9]: (§1) AUC (0 to 6 hrs) in Sprague-Dawley rat at 10 mg/kg, po by LC-MS/MS analysis. Type of data set: ADME, organism-based. More on the design: time < 6 hr, dose 10 mg/kg, route oral. The note with it: Sprague-Dawley, in vivo.
Data set [10] is described as follows: Ratio of drug level in brain to plasma in Sprague-Dawley rat at 10 mg/kg, po. In kind it is ADME, organism-based. To be noted: brain and plasma, read-out: BPR.
In data set [11] the test system is Rattus norvegicus. The experiment in a line: Antialzheimer activity in Sprague-Dawley rat assessed as reduction of total amylod beta level in plasma at 10 mg/kg, po after 3 hrs by immunoassay relative to vehicle-treated control. In kind it is functional. Set-up: scale not given: the % may be the effect or the level left.
Data set [12] deals with Gamma-secretase. The experiment in a line: Inhibition of gamma-secretase in HEK293 cells using human APP Swedish/London double mutant as substrate assessed as formation of amyloid beta 40 after 5 to 6 hrs by sandwich immunoassay. In kind it is cell-based.
Data set [13] has as its target Gamma-secretase. The experiment in a line: Inhibition of gamma-secretase in HEK293 cells using human APP Swedish/London double mutant as substrate assessed as formation of amyloid beta 42 after 5 to 6 hrs by sandwich immunoassay. Type of data set: cell-based.
The subject of data set [14] is Rattus norvegicus. Kind of data set: Antialzheimer activity in Sprague-Dawley rat assessed as reduction of total amylod beta level in cerebrospinal fluid at 10 mg/kg, po after 3 hrs by immunoassay relative to vehicle-treated control. Type of data set: functional. More on the design: scale not given: the % may be the effect or the level left.
Data set [15] has as its system Rattus norvegicus. Kind of data set: Antialzheimer activity in Sprague-Dawley rat assessed as reduction of total amylod beta level at 10 mg/kg, po after 3 hrs by immunoassay relative to vehicle-treated control. In kind it is functional, organism-based.
Data set [16] has as its system Rattus norvegicus. Described as §1. In kind it is ADME, organism-based. More on the design: time < 6 hr, dose 10 mg/kg, route oral. The note with it: in vivo, 6 h, BLD = below limit of detection.
The species entered for a further data set is Homo sapiens. Kind of data set: Selectivity ratio of IC50 for human presenilin-2 to IC50 for human presenilin-1.

SMILES strings stand for the structures. Active and inactive are the calls of the source. No cut-off for these calls is given here. Where only a bound is given, the exact number is not on record here.

One may read the IC50 as the concentration at which inhibition is half-maximal. A word on the AUC(0-t): it is exposure summed from dosing to a finite time, without extrapolation to infinity.

T1 sequence (P08684 whole entry): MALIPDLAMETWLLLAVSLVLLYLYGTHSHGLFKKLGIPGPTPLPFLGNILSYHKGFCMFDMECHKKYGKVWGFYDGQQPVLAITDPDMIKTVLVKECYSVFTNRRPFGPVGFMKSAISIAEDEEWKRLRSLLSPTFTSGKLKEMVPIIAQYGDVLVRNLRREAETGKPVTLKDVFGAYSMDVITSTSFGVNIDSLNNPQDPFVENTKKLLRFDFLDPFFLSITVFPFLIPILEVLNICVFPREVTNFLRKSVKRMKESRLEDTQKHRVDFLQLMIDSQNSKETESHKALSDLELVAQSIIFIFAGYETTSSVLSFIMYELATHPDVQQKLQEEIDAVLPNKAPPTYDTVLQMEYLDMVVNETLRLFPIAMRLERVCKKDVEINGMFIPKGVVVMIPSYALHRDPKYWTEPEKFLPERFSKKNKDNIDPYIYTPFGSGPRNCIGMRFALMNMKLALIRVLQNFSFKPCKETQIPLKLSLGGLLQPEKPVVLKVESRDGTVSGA

Consider `O=S(=O)(c1ccc(Cl)cc1)[C@@]12CCCC(CO)(CO)[C@@H]1COc1c(F)ccc(F)c12`, for which the concentration for half-maximal inhibition (IC50) at Gamma-secretase [1] is 251 nM; on Cytochrome P450 3A4 [3], 11000 nM; on Cytochrome P450 3A4 [4] it was 11500 nM; at Cytochrome P450 2D6 [5] it was greater than 30000 nM; against Cytochrome P450 2D6 [6], greater than 30000 nM; on Cytochrome P450 2C9 [7] it was 23400 nM. For the same molecule, at Cytochrome P450 2C9 [8], 21100 nM corresponded to half-maximal inhibition (IC50). The “inhibition (INH)” value in data set [2] is reported as “Not Active”.
The molecule `O=S(=O)(N[C@H]1CC[C@@](c2cc(F)ccc2F)(S(=O)(=O)c2ccc(Cl)cc2)CC1)C(F)(F)F` displayed an area under the curve AUC(0-t) at 6 h in data set [9] of 2.35 µM·h. In addition, the Kp in data set [10] came out at 0.2. In addition, the Activity in the data set with Rattus norvegicus [11] stood at 71%. For the same molecule, the IC50 on Cytochrome P450 2D6 [5] was greater than 30000 nM; against Cytochrome P450 2D6 [6], greater than 30000 nM; at Cytochrome P450 2C9 [7], less than 300 nM; on Cytochrome P450 2C9 [8], less than 300 nM.
For the molecule `O=S(=O)(c1ccc(Cl)cc1)[C@@]12CCC[C@]3(CCOC3)[C@@H]1COc1c(F)ccc(F)c12` (stereo in doubt; (-)-14b), the IC50 on Gamma-secretase [1] is 13.9 nM; at Gamma-secretase [12], 6 nM; at Gamma-secretase [13], 3 nM; at Cytochrome P450 3A4 [3], greater than 20000 nM; at Cytochrome P450 3A4 [4], greater than 20000 nM; on Cytochrome P450 2D6 [5], greater than 20000 nM. Also, the IC50 on Cytochrome P450 2D6 [6], at Cytochrome P450 2C9 [7] and on Cytochrome P450 2C9 [8] was greater than 20000 nM in each case. For the same molecule, the Activity came to 29% in the data set with Rattus norvegicus [11] and 10% in the data set on Rattus norvegicus [14]. Moreover, the “inhibition (INH)” value in [2] is “Not Active”.
Take `O=S1(=O)CCC2(CCC[C@@]3(S(=O)(=O)c4ccc(Cl)cc4)c4c(F)ccc(F)c4OC[C@@H]23)CC1`: the AUC(0-t) at 6 h in data set [9] worked out at 3.31 µM·h. For the same molecule, the Kp in data set [10] turned out to be 0.2. Moreover, the outcome in the data set on Rattus norvegicus [15] was inactive. In addition, the “inhibition (INH)” value in data set [2] is “Not Active”. Also, the concentration for half-maximal inhibition (IC50) at Cytochrome P450 3A4 [3], at Cytochrome P450 3A4 [4], at Cytochrome P450 2D6 [5], against Cytochrome P450 2D6 [6], on Cytochrome P450 2C9 [7] and against Cytochrome P450 2C9 [8] was greater than 20000 nM throughout.
With `O=S(=O)(c1ccc(Cl)cc1)[C@@]12CCC[C@]3(CCOC3)[C@@H]1COc1c(F)ccc(F)c12` (stereo in doubt; (+)-14b), the half-maximal inhibitory concentration (IC50) on Gamma-secretase [1] came out at 142 nM; at Gamma-secretase [12], 104 nM; at Gamma-secretase [13] it was 63 nM.
Take `O=S(=O)(N1CC[C@]2(CCC[C@@]3(S(=O)(=O)c4ccc(Cl)cc4)c4c(F)ccc(F)c4OC[C@@H]23)C1)C(F)(F)F`: the IC50 on Gamma-secretase [1] is 23.3 nM; on Gamma-secretase [12], 13 nM; on Gamma-secretase [13], 8 nM; at Cytochrome P450 3A4 [3], greater than 30000 nM; against Cytochrome P450 3A4 [4], greater than 20000 nM; on Cytochrome P450 2D6 [5] it was greater than 30000 nM. The half-inhibitory concentration (IC50) at Cytochrome P450 2D6 [6], on Cytochrome P450 2C9 [7] and against Cytochrome P450 2C9 [8] was greater than 30000 nM each time. In addition, the “inhibition (INH)” value in data set [2] is given as “Not Active”.
Regarding `O=C1OCC[C@]12CCC[C@@]1(S(=O)(=O)c3ccc(Cl)cc3)c3c(F)ccc(F)c3OC[C@@H]21`, the concentration for half-maximal inhibition (IC50) was 228 nM on Gamma-secretase [1]; greater than 30000 nM on Cytochrome P450 3A4 [3]; greater than 30000 nM on Cytochrome P450 3A4 [4]; greater than 30000 nM on Cytochrome P450 2D6 [5]; greater than 30000 nM on Cytochrome P450 2D6 [6]; greater than 30000 nM on Cytochrome P450 2C9 [7]. The half-inhibitory concentration (IC50) on Cytochrome P450 2C9 [8] was greater than 30000 nM. Besides, in [2], the “inhibition (INH)” value is “Not Active”.
Regarding `O=S(=O)(N[C@@H]1CC[C@@]2(S(=O)(=O)c3ccc(Cl)cc3)c3c(F)ccc(F)c3OC[C@H]2C1)C(F)(F)F`, the half-maximal inhibitory concentration (IC50) on Cytochrome P450 3A4 [3] was 9600 nM; on Cytochrome P450 3A4 [4] it was 3500 nM; on Cytochrome P450 2D6 [5], greater than 30000 nM; against Cytochrome P450 2D6 [6] it was greater than 30000 nM; on Cytochrome P450 2C9 [7], less than 300 nM; at Cytochrome P450 2C9 [8] it was less than 300 nM.
Regarding `O=S(=O)(c1ccc(Cl)cc1)[C@@]12CCCC3(COC3)[C@@H]1COc1c(F)ccc(F)c12`, the IC50 turned out to be 10.1 nM on Gamma-secretase [1], 13 nM at Gamma-secretase [12] and 7 nM at Gamma-secretase [13]. Moreover, the AUC entry in the data set on Rattus norvegicus [16] is listed as “BLD”. For the same molecule, the “inhibition (INH)” value in data set [2] is listed as “Not Active”.
As to `O=S(=O)(NC[C@@H]1OCC[C@@]2(S(=O)(=O)c3ccc(Cl)cc3)c3c(F)ccc(F)c3OC[C@@H]12)C(F)(F)F`, the half-maximal inhibitory concentration (IC50) on Cytochrome P450 3A4 [3] is greater than 30000 nM; against Cytochrome P450 3A4 [4] it was 21400 nM; on Cytochrome P450 2D6 [5] it was 17900 nM; against Cytochrome P450 2D6 [6] it was 30000 nM; at Cytochrome P450 2C9 [7], 2500 nM; against Cytochrome P450 2C9 [8] it was 4900 nM.
`O=S(=O)(c1ccc(Cl)cc1)C1(c2cc(F)ccc2F)CCCCC1`: the concentration for half-maximal inhibition (IC50) on Gamma-secretase [1] came to 14.1 nM; at Gamma-secretase [12], 41 nM; at Gamma-secretase [13], 27 nM. Also, the AUC entry with Rattus norvegicus [16] is “BLD”. Besides, the Ratio IC50 in the data set filed under Homo sapiens turned out to be 1. The result in the data set on Rattus norvegicus [15] was inactive.
For the molecule `CC1(C)OCC2(CCC[C@@]3(S(=O)(=O)c4ccc(Cl)cc4)c4c(F)ccc(F)c4OC[C@@H]23)CO1`, the IC50 amounted to 66.6 nM at Gamma-secretase [1], 33 nM at Gamma-secretase [12] and 12 nM at Gamma-secretase [13]. Besides, the “inhibition (INH)” value in data set [2] is on record as “Not Active”.
As to `O=S(=O)(c1ccc(Cl)cc1)[C@@]12CCCC3(CCSCC3)[C@@H]1COc1c(F)ccc(F)c12`, the half-inhibitory concentration (IC50) stood at 26.4 nM at Gamma-secretase [1], 17 nM on Gamma-secretase [12] and 5 nM at Gamma-secretase [13]. Also, the AUC result in the data set with Rattus norvegicus [16] was “BLD”. Also, the outcome in the data set on Rattus norvegicus [15] was inactive. In addition, the “inhibition (INH)” value in data set [2] was “Not Active”.
